PubChem BioAssay (NCI)
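Each compound was tested at five concentrations against cells in 96-well plates for 48 hours. TGI is the concentration that stops growth completely.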

Key:
Test in all cases: NCI anticancer screen, dose series, 48 h
IGROV1 ovarian = tested on: IGROV1 ovarian
HOP-18 NSCLC = tested on: HOP-18 NSCLC
SNB-78 CNS = tested on: SNB-78 CNS
M19-MEL melanoma = tested on: M19-MEL melanoma
LXFL 529 NSCLC = tested on: LXFL 529 NSCLC
DMS 114 small cell lung = tested on: DMS 114 small cell lung
DLD-1 colon = tested on: DLD-1 colon
K-562 leukemia = tested on: K-562 leukemia
XF 498 CNS = tested on: XF 498 CNS
KM20L2 colon = tested on: KM20L2 colon
KM12 colon = tested on: KM12 colon
DMS 273 small cell lung = tested on: DMS 273 small cell lung
T-47D breast = tested on: T-47D breast

With `O=CN/C=C\c1cc(O)ccc1O` the TGI (IGROV1 ovarian) was > 58.4 µM, the TGI (HOP-18 NSCLC) was 30.7 µM and the TGI (SNB-78 CNS) was > 100 µM. It also gave a TGI (M19-MEL melanoma) of 40.2 µM, a TGI (LXFL 529 NSCLC) of 22.8 µM and a TGI (DMS 114 small cell lung) of 52.3 µM. The TGI (DLD-1 colon) was 31.6 µM, the TGI (K-562 leukemia) was > 100 µM and the TGI (XF 498 CNS) was 28.8 µM. For the same compound, the TGI (KM20L2 colon) was > 62.4 µM, the TGI (KM12 colon) was > 100 µM and the TGI (DMS 273 small cell lung) was > 41.1 µM.
In the case of `CC(=O)Oc1ccc(C2SCc3nc4ccccc4n32)cc1` (stereo not drawn), the TGI (IGROV1 ovarian) is reported as > 100 µM, the TGI (T-47D breast) is reported as > 100 µM and the TGI (K-562 leukemia) is reported as > 100 µM. It also gave a TGI (KM12 colon) of 81.8 µM.
With `CSc1nnc2n1-c1ccccc1SCC2` the TGI (IGROV1 ovarian) was > 100 µM, the TGI (HOP-18 NSCLC) was > 100 µM and the TGI (SNB-78 CNS) was > 100 µM. The TGI (M19-MEL melanoma) was > 100 µM, the TGI (LXFL 529 NSCLC) was > 100 µM and the TGI (DMS 114 small cell lung) was > 100 µM. For the same compound, the TGI (DLD-1 colon) was > 100 µM, the TGI (K-562 leukemia) was > 100 µM and the TGI (XF 498 CNS) was > 100 µM. For the same compound, the TGI (KM20L2 colon) was > 100 µM, the TGI (KM12 colon) was > 100 µM and the TGI (DMS 273 small cell lung) was > 100 µM.
`CN=C(NC#N)NCc1ccccc1` was tested, and the TGI (IGROV1 ovarian) was > 100 µM, the TGI (SNB-78 CNS) was > 100 µM and the TGI (M19-MEL melanoma) was > 100 µM. For the same compound, the TGI (LXFL 529 NSCLC) was > 100 µM, the TGI (DMS 114 small cell lung) was > 100 µM and the TGI (DLD-1 colon) was > 100 µM. For the same compound, the TGI (XF 498 CNS) was > 100 µM, the TGI (KM20L2 colon) was > 100 µM and the TGI (KM12 colon) was > 100 µM. For the same compound, the TGI (DMS 273 small cell lung) was > 100 µM.
